Assay results reported in ChEMBL document CHEMBL1146350, “Synthesis of some new bioactive 3-amino-2-mercapto-5,6,7,8-tetrahydro[1]benzothieno[2,3-d]pyrimidin-4(3H)-one derivatives” (2007).
≈ marks a conversion by molar mass, not a printed value. Calls of active or inactive are those of the source. The rule behind the calls is not given here.

Columns and labels:
[1] = tested on: Pseudomonas aeruginosa; assay: Antibacterial activity against Pseudomonas aeruginosa ATCC 27853 by disc diffusion method; format: functional; conditions: for MIC: Pseudomonas aeruginosa, ATCC 27853
[2] = tested on: Talaromyces marneffei; assay: Antifungal activity against Penicillium marneffei by serial plate dilution method; format: functional; conditions: for MIC: Talaromyces marneffei
[3] = tested on: Staphylococcus aureus; assay: Antibacterial activity against Staphylococcus aureus ATCC 25923 by disc diffusion method; format: functional
[4] = tested on: Rattus norvegicus; assay: Antiinflammatory activity in Wister Albino rat assessed as inhibition of paw edema at 50 mg/kg, po after 3hrs; format: functional
[5] = tested on: Klebsiella pneumoniae; assay: Antibacterial activity against Klebsiella pneumoniae by disc diffusion method; format: functional; conditions: for MIC: Klebsiella pneumoniae
[6] = tested on: Aspergillus fumigatus; assay: Antifungal activity against Aspergillus fumigatus NCIM 902 by serial plate dilution method; format: functional; conditions: for MIC: Aspergillus fumigatus, NCIM 902
[7] = tested on: Escherichia coli; assay: Antibacterial activity against Escherichia coli ATCC 25922 by disc diffusion method; format: functional; conditions: for MIC: Escherichia coli, ATCC 25922
[8] = tested on: Aspergillus flavus; assay: Antifungal activity against Aspergillus flavus NCIM 524 by serial plate dilution method; format: functional; conditions: for MIC: Aspergillus flavus, NCIM 524
[9] = tested on: Trichophyton benhamiae; assay: Antifungal activity against Trichophyton mentagrophytes by serial plate dilution method; format: functional, Arthroderma benhamiae; conditions: for MIC: Trichophyton benhamiae
[10] = tested on: Mus musculus; assay: Anticonvulsant activity in Swiss Albino mouse assessed as mortality at 50 mg/kg, po by PTZ induced seizure test; format: functional, organism-based; design: dose 50 mg/kg
[11] = tested on: Mus musculus; assay: Anticonvulsant activity in Swiss Albino mouse assessed as duration of seizure at 50 mg/kg, po by PTZ induced seizure test; format: functional
[12] = tested on: Mus musculus; assay: Anticonvulsant activity in Swiss Albino mouse assessed as duration of seizure at 2 mg/kg, po by PTZ induced seizure test; format: functional
[13] = Staphylococcus aureus, ATCC 25923, read-out: MIC

| SMILES | inhibition zone (IZ) [1] [mm] | MIC [1] [µg/mL] | inhibition zone (IZ) [2] [mm] | MIC [2] [µg/mL] | inhibition zone (IZ) [3] [mm] | MIC [3, 13] [µg/mL] | inhibition in vivo at 50 mg/kg [4] [%] | inhibition zone (IZ) [5] [mm] | MIC [5] [µg/mL] | inhibition zone (IZ) [6] [mm] | MIC [6] [µg/mL] | inhibition zone (IZ) [7] [mm] | MIC [7] [µg/mL] | inhibition zone (IZ) [8] [mm] | MIC [8] [µg/mL] | inhibition zone (IZ) [9] [mm] | MIC [9] [µg/mL] | Activity [10] | Activity [11] [s] | Activity [12] [s] | also measured |
| --- | --- | --- | --- | --- | --- | --- | --- | --- | --- | --- | --- | --- | --- | --- | --- | --- | --- | --- | --- | --- | --- |
| Nn1c(SCC(=O)c2ccccc2)nc2sc3c(c2c1=O)CCCC3 | 8 | > 100 | 6 | > 100 | 18 | 12.5 (≈ 33.6 µM) | 4.44 | 8 | > 100 | 8 | > 100 | 8 | > 100 | 10 | 80 (≈ 215 µM) | 8 | > 100 | – | – | – | – |
| O=c1c2c3c(sc2nc2sc(CCl)nn12)CCCC3 | – | – | – | – | – | – | – | – | – | – | – | – | – | – | – | – | – | inactive | 450 | 70 | – |
| CCCc1nn2c(=O)c3c4c(sc3nc2s1)CCCC4 | 22 | 10 (≈ 32.7 µM) | 19 | 12.5 (≈ 40.9 µM) | 20 | 10 (≈ 32.7 µM) | 30.8 | 26 | 6.25 (≈ 20.5 µM) | 26 | < 6.25 | 18 | 10 (≈ 32.7 µM) | 28 | < 6.25 | 6 | > 100 | inactive | 75 | 73 | – |
| CCc1nn2c(=O)c3c4c(sc3nc2s1)CCCC4 | 18 | 10 (≈ 34.3 µM) | 6 | > 100 | 8 | > 100 | 51.1 | 22 | 10 (≈ 34.3 µM) | 6 | > 100 | 10 | 80 (≈ 275 µM) | 8 | > 100 | 6 | > 100 | inactive | 185 | 110 | – |
| O=c1c2c3c(sc2nc2sc(-c4cc(Cl)cc(Cl)c4)nn12)CCCC3 | 8 | > 100 | 5 | > 100 | 8 | > 100 | – | 6 | > 100 | 5 | > 100 | 8 | > 100 | 6 | > 100 | 6 | > 100 | – | – | – | – |
| OC(Cn1cncn1)(Cn1cncn1)c1ccc(F)cc1F [FLUCONAZOLE] | – | – | 21 | < 6.25 | – | – | – | – | – | 21 | < 6.25 | – | – | 18 | < 6.25 | 19 | < 6.25 | – | – | – | – |
| Nn1c(SCC(=O)c2ccnc(Cl)c2)nc2sc3c(c2c1=O)CCCC3 | 8 | > 100 | 6 | > 100 | 10 | 80 (≈ 197 µM) | – | 10 | 80 (≈ 197 µM) | 10 | 80 (≈ 197 µM) | 8 | > 100 | 6 | > 100 | 8 | > 100 | – | – | – | – |
| Nn1c(SCC(=O)c2ccc(O)c(O)c2)nc2sc3c(c2c1=O)CCCC3 | 16 | 60 (≈ 149 µM) | 6 | > 100 | 16 | 60 (≈ 149 µM) | – | 10 | 80 (≈ 198 µM) | 8 | > 100 | 10 | 80 (≈ 198 µM) | 6 | > 100 | 8 | > 100 | inactive | 270 | 62 | – |
| O=c1c2c3c(sc2nc2sc(Cc4ccccc4)nn12)CCCC3 | 10 | 80 (≈ 226 µM) | 6 | > 100 | 8 | > 100 | – | 8 | > 100 | 6 | > 100 | 10 | 80 (≈ 226 µM) | 10 | 80 (≈ 226 µM) | 6 | > 100 | – | – | – | – |
| CN[C@@H]1[C@H](O[C@H]2[C@H](O[C@H]3[C@H](O)[C@@H](O)[C@H](N=C(N)N)[C@@H](O)[C@@H]3N=C(N)N)O[C@@H](C)[C@]2(O)C=O)O[C@@H](CO)[C@H](O)[C@H]1O (stereo in doubt) [STREPTOMYCIN] | 24 | < 6.25 | – | – | 21 | – | – | 24 | < 6.25 | – | – | 20 | < 6.25 | – | – | – | – | – | – | – | MIC [3]: <6.25 ug/sq.cm |
| O=c1c2c3c(sc2nc2sc(=S)[nH]n12)CCCC3 | – | – | – | – | – | – | 7.69 | – | – | – | – | – | – | – | – | – | – | inactive | 39 | 56 | – |
| COc1ccc(C(=O)CSc2nc3sc4c(c3c(=O)n2N)CCCC4)cc1 | 8 | > 100 | 8 | > 100 | 8 | > 100 | – | 18 | 12.5 (≈ 31.1 µM) | 16 | 12.5 (≈ 31.1 µM) | 8 | > 100 | 12 | 80 (≈ 199 µM) | 4 | > 100 | inactive | 450 | 41 | – |
| Nn1c(SCC(=O)c2ccc(Cl)cc2)nc2sc3c(c2c1=O)CCCC3 | 18 | 12.5 (≈ 30.8 µM) | 6 | > 100 | 8 | > 100 | – | 6 | > 100 | 8 | > 100 | 8 | > 100 | 6 | > 100 | 8 | > 100 | inactive | 255 | 400 | – |
